Assay [1] has as its system formate dehydrogenase. Description: Specificity control: substrate GTP replaced with formic acid. To be noted: formate instead of GTP; FIG. 2. The class given is biochemical. As for the experimental part:
(§1) The assay is performed in a suitable buffer e.g. Tris/HCl, pH 7.8 including 1 mM Mg.Cl2, 1 mM DTT, 0.5 mM NAD, 2 units/ml formate dehydrogenase and 2.5 mM GTP Li salt. After the addition of the GTP cyclohydrolase comprising cell free extracts of step A), the reaction was monitored by measuring the absorption at 340 nm.
To distinguish between the inhibition of GTP cyclohydrolase and formate dehydrogenase in the above-mentioned assay, the subtrate GTP is replaced with formic acid.

Assay [2] concerns GTP cyclohydrolase II. Description: GTP cyclohydrolase activity assay coupled to formate dehydrogenase (NADH formation, absorption at 340 nm). The class given is biochemical, Ashbya gossypii. The following applies: cell free extract, 2.5 mM GTP, 0.5 mM NAD, 2 units/ml formate dehydrogenase; FIG. 1. As for the experimental part: Ashbya gossypii cells may be obtained after 2 days from a culture in 3% (w/v) malt extract +0.3% (w/v) difco-soyton, pH 5.6 at 28° C. A cell-free extract can be obtained by mechanical breakage of the cells with a kitchen blender in 50 mM imidazole buffer pH 7 containing 1 mM EDTA-Na salt, 5 mM MgSO4, 10 mM KCl, 5 mM dithiothreitol and 30% (v/v) glycerol and separation of unbroken cells and debris by centrifugation.
as §1
After dissolving the respective candidate compounds in a suitable solvent e.g. DMSO, an aliquot of the afore made solution is added to the reaction mixture. The enzyme activity of this sample is compared with the activity of a control comprising the pure solvent instead of the candidate compound. The resulting relative activity was calculated as percent inhibition in relation to the sample without the candidate compound.
In FIG. 1, the GTP dependant formation of NADH in the reaction mixture and inhibition by 3-Butyl-10-(3-chlorophenyl)-10H-pyrimido[4,5-b]quinoline-2,4-dione is shown.

The subject of assay [3] is Septoria tritici. The class given is cell-based. The following applies: 18° C., 7 days; 405 nm.
In assay [4] the test system is Phytophthora infestans. The class given is cell-based. To be noted: 125 ppm compound solution, 50 μl + 50 μl spore suspension, 18° C., 7 days, 405 nm.
Assay [5] relates to Pyricularia oryzae. The class given is cell-based. The following applies: 125 ppm compound solution, 50 μl + 50 μl spore suspension, 18° C., 7 days, 405 nm.

With `CCCCn1c(=O)nc2n(-c3cccc(Cl)c3)c3ccccc3cc-2c1=O` [3-butyl-10-(3-chlorophenyl)-10H-pyrimido[4,5-b]quinoline-2,4-dione], the “inhibition of formate dehydrogenase alone” value in assay [1] is reported as “No inhibition”. Further, in assay [2], the “inhibition of GTP dependent formation of NADH” value is given as “inhibition”. Also, the “% growth compared with the 0 ppm control” value in assay [3] is 0%; in assay [4], 39.9%; in assay [5], 47.6%.

(Values after patent US7435557B2 (priority 2002, dated 2008).)
